The record followed here is publication PMC11496704, “Synthesis and cytotoxicity studies of novel N-arylbenzo[h]quinazolin-2-amines” (Beilstein Journal of Organic Chemistry, 2024).

Broadly, the IC50 is the concentration that gives 50% inhibition.

Bounds are passed on as bounds.

What all share (assay type): cell-based
The test system of one data set is HCT116. Nature of the data set: Cytotoxicity primary screen (single dose). Particulars: Homo sapiens, HCT-116; single dose 25 μM, 48 h exposure, mean of triplicates; read-out: percentage of cell survival over DMSO control, HCT116. On the procedure: (§1) Next, we performed a cytotoxicity screening of the nineteen molecules 4a–s, at 25 μM, investigating seven representative cancer cell lines: hepatocellular carcinoma HuH-7, colorectal adenocarcinoma CaCo-2, breast carcinoma MDA-MB-231 and MDA-MB-468, colorectal carcinoma HCT-116, prostate carcinoma PC3 and breast carcinoma MCF7. […] For details see: ref. [2] and Supporting Information File 1, Table S1.
(§2) Cell culture. Skin normal fibroblastic cells are purchased from Lonza (Basel, Switzerland), HuH-7, Caco-2, MDA-MB-231, HCT-116, PC3, MCF7 and NCI-H727 cancer cell lines were obtained from ATCC (American Type Culture Collection). Cells are grown at 37 °C, 5% CO2 in ATCC recommended media: DMEM for HuH-7, MDA-MB-231, MDA-MB-468 and fibroblast, EMEM for MCF7 and CaCo-2, McCoy’s for HCT-116 and RPMI for PC3 and NCI-H727. All culture media are supplemented by 10% of FBS, 1% of penicillin-streptomycin and 2 mM glutamine.
(§3) Both studies have been performed following the protocols described in a previous paper, see ref. [2].
(§4) Table S1: Cytotoxicity studies (single dose at 25µM) of N-arylbenzo[h]quinazolin-2-amines 4a–s
(§5) The toxicity is expressed as the percentage of cell survival (from 100 % to 0 %) over DMSO control after 48 h exposure (mean of triplicates).
(§6) Effect of the solvent (DMSO) was studied at 0.25%.

For the next data set, the system named is MDA468. Nature of the data set: Cytotoxicity primary screen (single dose). Particulars: single dose 25 μM, 48 h exposure, mean of triplicates; read-out: percentage of cell survival over DMSO control, MDA468. On the procedure: as §1, §2, §3, §4, §5, §6
The test system of data set [1] is MCF7. As to the kind of experiment: Cytotoxicity primary screen (single dose). The following applies: Homo sapiens, single dose 25 μM, 48 h exposure, mean of triplicates, read-out: percentage of cell survival over DMSO control, MCF7. On the procedure: as §1, §2, §3, §4, §5, §6
Another data set concerns MDA231. Nature of the data set: Cytotoxicity primary screen (single dose). Particulars: Homo sapiens, MDA-MB-231; single dose 25 μM, 48 h exposure, mean of triplicates; read-out: percentage of cell survival over DMSO control, MDA231. As for the experimental part: as §1, §2, §3, §4, §5, §6
In data set [2] the test system is PC3. Nature of the data set: Cytotoxicity primary screen (single dose). The following applies: Homo sapiens, PC-3; single dose 25 μM, 48 h exposure, mean of triplicates; read-out: percentage of cell survival over DMSO control, PC3. On the procedure:
as §1, §2, §3, §4, §5, §6

The next data set deals with MDA-MB-468. As to the kind of experiment: Cytotoxicity secondary screen (IC50). Particulars: Homo sapiens, 48 h exposure, mean of triplicates, NE: no effect.
The subject of data set [3] is Caco-2. As to the kind of experiment: Cytotoxicity primary screen (single dose). The following applies: single dose 25 μM, 48 h exposure, mean of triplicates. On the procedure:
as §1, §2, §3, §4, §5, §6

A further data set relates to HuH7. As to the kind of experiment: Cytotoxicity primary screen (single dose). The following applies: Homo sapiens, Huh-7; single dose 25 μM, 48 h exposure, mean of triplicates; read-out: percentage of cell survival over DMSO control, HuH7. On the procedure: as §1, §2, §3, §4, §5, §6
The test system of data set [4] is MCF7. Nature of the data set: Cytotoxicity secondary screen (IC50). The following applies: Homo sapiens, 48 h exposure, mean of triplicates, NE: no effect.
For another data set, the system named is normal human fibroblasts. Nature of the data set: Cytotoxicity secondary screen (IC50). The following applies: Fibroblast, 48 h exposure, mean of triplicates, NE: no effect, highest concentration tested 25 μM, read-out: IC50 Fibro. On the procedure:
as §2, §3

The subject of the next data set is HuH-7. Nature of the data set: Cytotoxicity secondary screen (IC50). Particulars: Homo sapiens, 48 h exposure, mean of triplicates, NE: no effect. On the procedure:
as §2, §3

Data set [5] concerns PC3. As to the kind of experiment: Cytotoxicity secondary screen (IC50). Particulars: Homo sapiens, PC-3; 48 h exposure, mean of triplicates; NE: no effect. As for the experimental part: as §2, §3
For data set [6], the system named is Caco-2. Nature of the data set: Cytotoxicity secondary screen (IC50). The following applies: Homo sapiens, 48 h exposure, mean of triplicates, NE: no effect. As for the experimental part: as §1, §2, §3
The next data set relates to HCT-116. Nature of the data set: Cytotoxicity secondary screen (IC50). The following applies: Homo sapiens, 48 h exposure, mean of triplicates, NE: no effect. On the procedure:
as §1, §2, §3

The test system of another data set is MDA-MB-231. Nature of the data set: Cytotoxicity secondary screen (IC50). Particulars: Homo sapiens, 48 h exposure, mean of triplicates, NE: no effect.

For the molecule `Clc1cc(Br)cc(Nc2ncc3ccc4ccccc4c3n2)c1` [Compound 4q, N-(3-bromo-5-chlorophenyl)benzo[h]quinazolin-2-amine], the viability at 25 µM with HCT116 came to 13%; in the data set with MDA468, 38%; in the data set with MCF7 [1], 73%; in the data set with MDA231, 41%; in the data set on PC3 [2], 24%; in the data set on HuH7, 49%. The IC50 in the data set with MDA-MB-468 was 19 µM; in the data set with MCF7 [4] it was 14 µM; with normal human fibroblasts, greater than 25 µM; with HuH-7 it was 16 µM; in the data set with PC3 [5], 19 µM; in the data set on Caco-2 [6], 14 µM. The values for the IC50 with HCT-116 and with MDA-MB-231 were 13 µM and 20 µM, respectively. Moreover, the “percentage of cell survival over DMSO control, CaCo-2” value (from here on “percentage of cell survival”) in the data set on Caco-2 [3] is recorded as 35%.

Regarding `COc1ccc(Nc2ncc3ccc4ccccc4c3n2)cc1` [Compound 4g, N-(4-methoxyphenyl)benzo[h]quinazolin-2-amine], the viability at 25 µM in the data set with HCT116 worked out at 72%; in the data set with MDA468, 90%; in the data set on MCF7 [1], 83%; with MDA231 it was 87%; in the data set with PC3 [2] it was 82%; with HuH7, 79%. Also, the “percentage of cell survival” value in the data set on Caco-2 [3] stood at 81%.

Turning to `Brc1cc(Br)cc(Nc2ncc3ccc4ccccc4c3n2)c1` [Compound 4o, N-(3,5-dibromophenyl)benzo[h]quinazolin-2-amine], the viability at 25 µM was 27% in the data set on HCT116; 47% in the data set with MDA468; 85% with MCF7 [1]; 67% with MDA231; 38% with PC3 [2]; 62% with HuH7. Moreover, the IC50 is 20 µM in the data set on MDA-MB-468; 21 µM with MCF7 [4]; greater than 25 µM in the data set on normal human fibroblasts; 24 µM in the data set on HuH-7; 21 µM in the data set on PC3 [5]; 16 µM in the data set with Caco-2 [6]. For the same molecule, the IC50 is 23 µM in the data set on HCT-116 and greater than 25 µM in the data set with MDA-MB-231. Moreover, the “percentage of cell survival” value with Caco-2 [3] worked out at 46%.

Take `Cc1ccc(Nc2ncc3ccc4ccccc4c3n2)cc1` [Compound 4d, N-(p-tolyl)benzo[h]quinazolin-2-amine]: the viability at 25 µM came out at 54% in the data set with HCT116; 72% in the data set on MDA468; 61% in the data set on MCF7 [1]; 67% in the data set on MDA231; 65% with PC3 [2]; 85% in the data set with HuH7. The IC50 in the data set with MDA-MB-468 was 31 µM; with MCF7 [4], greater than 25 µM; in the data set with normal human fibroblasts, greater than 25 µM; in the data set with HuH-7, greater than 25 µM; with PC3 [5], 30 µM; in the data set on Caco-2 [6], greater than 25 µM. In addition, the IC50 in the data set with HCT-116 was 5 µM; in the data set with MDA-MB-231, greater than 25 µM. For the same molecule, in the data set on Caco-2 [3], the “percentage of cell survival” value is 63%.

In the case of `Clc1ccccc1Nc1ncc2ccc3ccccc3c2n1` [Compound 4k, N-(2-chlorophenyl)benzo[h]quinazolin-2-amine], the viability at 25 µM with HCT116 was found to be 83%; with MDA468 it was 93%; in the data set on MCF7 [1], 56%; in the data set on MDA231, 91%; with PC3 [2] it was 73%; with HuH7, 76%. Besides, the IC50 with MDA-MB-468, in the data set with MCF7 [4], in the data set with normal human fibroblasts, in the data set on HuH-7, in the data set with PC3 [5] and in the data set with Caco-2 [6] was greater than 25 µM throughout. Moreover, the IC50 in the data set on HCT-116 and in the data set with MDA-MB-231 was greater than 25 µM in each case. Moreover, the “percentage of cell survival” value with Caco-2 [3] is reported as 61%.

For `Fc1cc(Cl)cc(Nc2ncc3ccc4ccccc4c3n2)c1` [Compound 4p, N-(3-chloro-5-fluorophenyl)benzo[h]quinazolin-2-amine], the viability at 25 µM was found to be 17% in the data set with HCT116; 72% in the data set on MDA468; 91% with MCF7 [1]; 68% with MDA231; 59% with PC3 [2]; 80% with HuH7. Also, the “percentage of cell survival” value in the data set with Caco-2 [3] was 54%.

`Fc1ccc(Nc2ncc3ccc4ccccc4c3n2)cc1F` [Compound 4n, N-(3,4-difluorophenyl)benzo[h]quinazolin-2-amine]: the viability at 25 µM was determined as 82% in the data set with HCT116; 85% in the data set on MDA468; 97% with MCF7 [1]; 91% in the data set with MDA231; 82% with PC3 [2]; 79% with HuH7. In addition, the “percentage of cell survival” value with Caco-2 [3] was 72%.

Consider `Clc1ccc(Nc2ncc3ccc4ccccc4c3n2)cc1` [Compound 4m, N-(4-chlorophenyl)benzo[h]quinazolin-2-amine], for which the viability at 25 µM turned out to be 68% with HCT116; 88% in the data set on MDA468; 88% in the data set on MCF7 [1]; 83% with MDA231; 74% in the data set on PC3 [2]; 96% with HuH7. The “percentage of cell survival” value with Caco-2 [3] amounted to 75%.

Take `COc1ccccc1Nc1ncc2ccc3ccccc3c2n1` [Compound 4e, N-(2-methoxyphenyl)benzo[h]quinazolin-2-amine]: the viability at 25 µM with HCT116 came to 8%; in the data set on MDA468, 46%; in the data set on MCF7 [1], 82%; in the data set on MDA231, 40%; with PC3 [2], 21%; in the data set with HuH7 it was 55%. For the same molecule, the IC50 in the data set on MDA-MB-468 is 25 µM; in the data set with MCF7 [4], 22 µM; in the data set with normal human fibroblasts it was greater than 25 µM; in the data set with HuH-7 it was greater than 25 µM; in the data set on PC3 [5] it was greater than 25 µM; in the data set with Caco-2 [6] it was 20 µM. For the same molecule, the IC50 stood at 26 µM in the data set on HCT-116 and 25 µM in the data set with MDA-MB-231. For the same molecule, the “percentage of cell survival” value in the data set on Caco-2 [3] turned out to be 59%.

On to `Fc1ccc(Nc2ncc3ccc4ccccc4c3n2)cc1` [Compound 4j, N-(4-fluorophenyl)benzo[h]quinazolin-2-amine], for which the viability at 25 µM was found to be 81% with HCT116; 95% in the data set on MDA468; 81% in the data set on MCF7 [1]; 91% in the data set with MDA231; 78% in the data set with PC3 [2]; 92% in the data set on HuH7. For the same molecule, the “percentage of cell survival” value with Caco-2 [3] worked out at 77%.

On to `Cc1cc(Nc2ncc3ccc4ccccc4c3n2)ccc1Br` [Compound 4r, N-(4-bromo-3-methylphenyl)benzo[h]quinazolin-2-amine], for which the viability at 25 µM with HCT116 came to 100%; in the data set on MDA468, 96%; in the data set with MCF7 [1], 85%; in the data set on MDA231, 101%; in the data set on PC3 [2], 89%; in the data set with HuH7 it was 80%. The “percentage of cell survival” value in the data set with Caco-2 [3] is listed as 76%.

For the molecule `Fc1cc(Nc2ncc3ccc4ccccc4c3n2)cc(F)c1F` [Compound 4s, N-(3,4,5-trifluorophenyl)benzo[h]quinazolin-2-amine], the viability at 25 µM with HCT116 was 63%; with MDA468, 78%; in the data set on MCF7 [1] it was 54%; in the data set on MDA231, 78%; with PC3 [2], 50%; in the data set on HuH7, 77%. Further, in the data set on Caco-2 [3], the “percentage of cell survival” value turned out to be 65%.
